Assay type in all cases: cell-based
Assay [1] has as its target Ba/F3 EML4-ALK v1 I1171N (Homo sapiens (Human), UniProt Q9HC35+Q9UM73, I1171N). Nature of the assay: Ba/F3 cell proliferation assay, EML4-ALK v1 I1171N. Particulars: for IC50: Ba/F3 stable cells, 72 hours, CellTiter-Glo; for ETV6-TRKB / EML4-ALK v1 I1171N: TRKB selectivity, ratio of Ba/F3 IC50 values. The text has this:
(§1) Genes encoding EML4-ALK v1 (variant 1), EML4-ALK v1 G1202R, EML4-ALK v1 I1171IN, EML4-ALK v1 D1203N, EML4-ALK v1 I1171N/D1203N, and ETV6-TRKB were synthesized at GeneRay, cloned into the retroviral construct pMSCV-puro (Biovector), and packaged into retroviral particles. The virus was used to infect Ba/F3 cells (RIKEN) at multiplicity of infection=1 for 1 day. Infected cells were rescued in media (RPMI-1640 with 10% fetal bovine serum and 1% streptomycin and penicillin) supplemented with mouse IL-3 (10 ng/mL) for 2 days, and stable cell lines were selected by IL-3 withdrawal and puromycin (0.8 μg/mL) for 7 days. Monoclones were selected by single-cell dilution in IL-3-free medium containing puromycin (0.8 μg/mL). Transformation of desired genes was confirmed by Sanger sequencing and western blot using the following antibodies: ALK (CST #3633) and pan-TRK (Abcam #76291).
(§2) Stable cells were plated in a 384-well plate. Test compounds were then added in a 3-fold dilution series and incubated for 72 hours. CellTiter-Glo reagent (Promega) was added. Luminescence was measured on a plate reader. Half-maximal inhibitory concentration (ICso) was calculated from percent inhibition and inhibitor concentration using four-parameter logistic regression. Compound potency can be interpreted by binning IC50 values: bin A for high potency, 0.1 nM IC50<50 nM; bin B for medium potency, 50 nM<IC50<500 nM; and bin C for low potency, IC50>500 nM. […] Exemplary data is given in Table 4 (nd is not determined).
(§3) Ba/F3 proliferation is driven by the transduced oncogenes in the same way that cancer cell proliferation in humans is driven by the expression of equivalent oncogenes.
(§4) TRKB selectivity was calculated by dividing a compound's TRKB potency by its primary target potency (e.g., ETV6-TRKB IC50/EML4-ALK v1 IC50). Compound selectivity can be interpreted by binning ratio values: bin A for very high selectivity, ratio≥30-fold; bin B for high selectivity, ratio≥10-fold but<30; bin C for moderate selectivity, ratio≥1 but<10; and bin D for low selectivity, ratio<1. […] (nd=not determined).
Background: Cellular ATP, detected with luciferase, serves as a proxy for viable cell number.

The target of assay [2] is Ba/F3 ETV6-TRKB (Homo sapiens, UniProt Q16620). The assay is described as follows: Ba/F3 cell proliferation assay, ETV6-TRKB. Particulars: Ba/F3 stable cells, 72 hours, CellTiter-Glo; read-out: ETV6-TRKB IC50.
Sequence of Ba/F3 ETV6-TRKB (Q16620 32-822 limits assumed, change not shown): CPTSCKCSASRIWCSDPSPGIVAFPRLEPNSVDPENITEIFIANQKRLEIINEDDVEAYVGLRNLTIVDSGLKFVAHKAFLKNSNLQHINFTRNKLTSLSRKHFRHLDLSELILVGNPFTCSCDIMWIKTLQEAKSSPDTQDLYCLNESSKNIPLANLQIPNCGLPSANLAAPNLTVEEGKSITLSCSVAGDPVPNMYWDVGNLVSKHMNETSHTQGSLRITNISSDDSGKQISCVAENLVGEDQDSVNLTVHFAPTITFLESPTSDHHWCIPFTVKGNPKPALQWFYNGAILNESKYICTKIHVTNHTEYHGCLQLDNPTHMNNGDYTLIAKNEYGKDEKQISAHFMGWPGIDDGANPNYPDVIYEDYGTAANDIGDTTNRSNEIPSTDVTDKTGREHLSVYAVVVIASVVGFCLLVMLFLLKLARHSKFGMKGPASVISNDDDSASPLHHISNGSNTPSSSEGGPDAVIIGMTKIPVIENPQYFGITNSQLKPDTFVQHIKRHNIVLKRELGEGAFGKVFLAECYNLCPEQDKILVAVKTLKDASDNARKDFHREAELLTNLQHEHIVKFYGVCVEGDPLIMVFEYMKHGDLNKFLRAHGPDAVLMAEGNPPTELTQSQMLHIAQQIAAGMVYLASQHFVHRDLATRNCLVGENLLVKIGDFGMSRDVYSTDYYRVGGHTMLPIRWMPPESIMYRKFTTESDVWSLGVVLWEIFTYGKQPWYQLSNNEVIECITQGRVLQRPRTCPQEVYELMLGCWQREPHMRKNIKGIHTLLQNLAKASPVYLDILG
From the text: as §1, §2, §3

The target in assay [3] is Ba/F3 EML4-ALK v1 I1171N/D1203N (Homo sapiens (Human), UniProt Q9HC35+Q9UM73, D1203N/I1171N). Nature of the assay: Ba/F3 cell proliferation assay, EML4-ALK v1 I1171N/D1203N. Particulars: for IC50: Ba/F3 stable cells, 72 hours, CellTiter-Glo; for ETV6-TRKB / EML4-ALK v1 I1171N/D1203N / Selectivity for Ba/F3 EML4-ALK v1 I1171N-D1203N IC50 over Ba/F3 ETV6-TRKB IC50: TRKB selectivity, ratio of Ba/F3 IC50 values; for Selectivity for Ba/F3 EML4-ALK v1 I1171N-D1203N IC50 over Ba/F3 ETV6-TRKB IC50: Table 6 bins.
Sequence of Ba/F3 EML4-ALK v1 I1171N/D1203N (Q9UM73 other isoform, or with tags, fused parts or gaps I1171N/D1203N): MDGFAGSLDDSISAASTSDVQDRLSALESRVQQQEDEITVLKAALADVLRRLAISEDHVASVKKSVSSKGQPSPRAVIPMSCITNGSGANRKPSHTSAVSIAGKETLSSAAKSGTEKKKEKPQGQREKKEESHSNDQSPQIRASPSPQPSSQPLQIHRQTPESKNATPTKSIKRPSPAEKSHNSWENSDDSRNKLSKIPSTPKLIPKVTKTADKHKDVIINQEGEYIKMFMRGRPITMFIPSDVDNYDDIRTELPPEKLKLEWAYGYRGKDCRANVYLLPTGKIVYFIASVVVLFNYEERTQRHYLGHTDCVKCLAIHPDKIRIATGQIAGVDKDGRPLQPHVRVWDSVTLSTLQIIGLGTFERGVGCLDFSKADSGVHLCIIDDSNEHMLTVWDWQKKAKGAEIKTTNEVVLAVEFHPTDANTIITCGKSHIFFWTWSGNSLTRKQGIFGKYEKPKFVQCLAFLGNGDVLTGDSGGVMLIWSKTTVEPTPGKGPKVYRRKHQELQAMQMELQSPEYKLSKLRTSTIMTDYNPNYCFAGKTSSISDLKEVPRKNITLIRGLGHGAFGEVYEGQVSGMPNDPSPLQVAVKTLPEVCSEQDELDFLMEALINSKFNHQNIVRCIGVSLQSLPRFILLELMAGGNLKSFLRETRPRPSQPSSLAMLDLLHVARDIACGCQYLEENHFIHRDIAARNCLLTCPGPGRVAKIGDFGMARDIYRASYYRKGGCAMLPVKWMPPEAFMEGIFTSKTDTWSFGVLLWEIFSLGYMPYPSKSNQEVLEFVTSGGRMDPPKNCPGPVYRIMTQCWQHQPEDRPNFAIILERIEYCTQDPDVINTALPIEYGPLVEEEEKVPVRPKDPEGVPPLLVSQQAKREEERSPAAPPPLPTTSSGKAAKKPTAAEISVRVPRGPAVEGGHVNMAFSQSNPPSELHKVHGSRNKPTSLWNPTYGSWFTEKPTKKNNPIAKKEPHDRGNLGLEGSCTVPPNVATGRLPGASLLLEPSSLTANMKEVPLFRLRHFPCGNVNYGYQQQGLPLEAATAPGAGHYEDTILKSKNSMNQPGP
From the text: as §1, §2, §3, §4
Additional exemplified compounds were also tested against ALK-INDN and TRKB. The TRKB selectivity was calculated by dividing a compound's TRKB potency by its primary target potency (e.g., ETV6-TRKB IC50/EMIL4-ALK I1171N-D1203N v1 IC50). Compound selectivity can be interpreted by binning ratio values: bin AA for the selectivity with the ratio≥30-fold; bin BB for the selectivity with the ratio≥10-fold but<30; bin CC for the selectivity with the ratio≥5 but<10; bin DD for the selectivity with the ratio≥1 but<5; and bin EE for the selectivity with the ratio<1.

From patent US20250326769A1, “HETEROAROMATIC MACROCYCLIC ETHER CHEMOTHERAPEUTIC AGENTS” (Nuvalent, Inc., priority 2022, published 2025) come the findings set out here.

Sequence of Ba/F3 EML4-ALK v1 I1171N (Q9UM73 other isoform, or with tags, fused parts or gaps I1171N): as the sequence (Q9UM73 other isoform, or with tags, fused parts or gaps I1171N/D1203N) above, with N642D counted along it

A word on the IC50: it is the concentration needed to halve the response being measured. In the case of `C[C@H]1Oc2cc(cnc2N)-c2c(c(C#N)nn2CC2CC2)Cc2cn(C)nc2-c2ccc(F)cc21` [Example 1, (19R)-22-amino-3-(cyclopropylmethyl)-16-fluoro-10,19-dimethyl-20-oxa-3,4,10,11,23-pentaazapentacyclo[19.3.1.0^2,6.0^8,12.0^13,18]pentacosa-1(24),2(6),4,8,11,13,15,17,21(25),22-decaene-5-carbonitrile], in assay [1], the IC50 lay in the range of 50 to 500 nM and the “ETV6-TRKB / EML4-ALK v1 I1171N” value is “B (bin B for high selectivity, ratio≥10-fold but<30)”. Moreover, in assay [2], the IC50 is greater than 500 nM. Moreover, in assay [3], the half-inhibitory concentration (IC50) was greater than 500 nM and the “ETV6-TRKB / EML4-ALK v1 I1171N/D1203N” value is given as “C (bin C for moderate selectivity, ratio≥1 but<10)”.
For `CCn1ncc2c1-c1cnc(N)c(c1)O[C@H](C)c1cc(F)ccc1-c1ncccc1O2` [Example 14, (R)-3-ethyl-17-fluoro-20-methyl-7,21-dioxa-3,4,12,24-tetraazapentacyclo[20.3.1.0^2,^6.0^8,^13.0^14,^19]hexacosa-1(25),2(6),4,8(13),9,11,14,16,18,22(26),23-undecaen-23-ylamine], the IC50 lay in the range of 0.1 to 50 nM in assay [1], 0.1 to 50 nM in assay [2] and 50 to 500 nM in assay [3].
On to `CCn1ncc2c1-c1cnc(N)c(c1)O[C@H](C)c1cc(F)ccc1-c1nn(C)cc1C2=O` [Example 15, (R)-22-amino-3-ethyl-16-fluoro-10-methyl-19-methyl-20-oxa-3,4,10,11,23-pentaazapentacyclo[19.3.1.0^2,^6.0^8,^12.0^13,^18]pentacosa-1(24),2(6),4,8,11,13,15,17,21(25),22-decaen-7-one], for which, in assay [1], the IC50 is greater than 500 nM and the “ETV6-TRKB / EML4-ALK v1 I1171N” value is reported as “D (bin D for low selectivity, ratio<1)”. The IC50 in assay [2] was 50 to 500 nM. Also, in assay [3], the IC50 lay in the range of 50 to 500 nM; the “ETV6-TRKB / EML4-ALK v1 I1171N/D1203N” value is “C (bin C for moderate selectivity, ratio≥1 but<10)”; the “Selectivity for Ba/F3 EML4-ALK v1 I1171N-D1203N IC50 over Ba/F3 ETV6-TRKB IC50” value was “DD (bin DD for the selectivity with the ratio≥1 but<5)”.
`C[C@H]1Oc2cc(cnc2N)-c2c(nn(C)c2C#N)Oc2cccnc2-c2c(F)cc(F)cc21` [Example 61, (R)-23-amino-15,17-difluoro-4-methyl-20-methyl-7,21-dioxa-4,5,12,24-tetraazapentacyclo[20.3.1.0^2,^6.0^8,^13.0^14,^19]hexacosa-1(25),2,5,8(13),9,11,14,16,18,22(26),23-undecaene-3-carbonitrile]: the half-inhibitory concentration (IC50) lay within 50 to 500 nM in assay [2] and 0.1 to 50 nM in assay [3].
Consider `Cc1cc2n(n1)-c1ccc(F)cc1[C@@H](C)Oc1cc(cnc1N)-c1c(c(C(=O)N(C)C)nn1C1CCC1)C2` [Example 67, N,N-dimethyl-(R)-22-amino-3-cyclobutyl-16-fluoro-10,19-dimethyl-20-oxa-3,4,11,12,23-pentaazapentacyclo[19.3.1.0^2,^6.0^8,^12.0^13,^18]pentacosa-1(24),2(6),4,8,10,13,15,17,21(25),22-decaene-5-carboxamide], for which the IC50 was in the range of 50 to 500 nM in assay [2] and 0.1 to 50 nM in assay [3].
In the case of `Cc1cc2n(n1)-c1c(F)cc(F)cc1[C@@H](C)Oc1cc(cnc1N)-c1c(nn(C)c1C#N)C2=O` [Example 68, (R)-22-amino-14,16-difluoro-4-methyl-10,19-dimethyl-7-oxo-20-oxa-4,5,11,12,23-pentaazapentacyclo[19.3.1.0^2,^6.0^8,^12.0^13,^18]pentacosa-1(24),2,5,8,10,13,15,17,21(25),22-decaene-3-carbonitrile], the IC50 in assay [2] is greater than 500 nM; in assay [3] it was 50 to 500 nM.
As for `Cc1cc2n(n1)-c1c(F)cc(F)cc1[C@@H](C)Oc1cc(cnc1N)-c1c(C#N)nn(C)c1C2=O` [Example 69, (R)-22-amino-14,16-difluoro-5-methyl-10,19-dimethyl-7-oxo-20-oxa-4,5,11,12,23-pentaazapentacyclo[19.3.1.0^2,^6.0^8,^12.0^13,^18]pentacosa-1(24),2(6),3,8,10,13,15, 17,21(25),22-decaene-3-carbonitrile], the figures for the IC50 in assay [2] and in assay [3] were 50 to 500 nM and 0.1 to 50 nM, respectively. In addition, the “ETV6-TRKB / EML4-ALK v1 I1171N/D1203N” value in assay [3] is recorded as “B (bin B for high selectivity, ratio≥10-fold but<30)”.
Regarding `CC1Oc2cc(cnc2N)-c2c(c(C#N)nn2CC2CC2)Cc2cn(C)nc2-c2c(F)cc(F)cc21` (stereo not drawn) [Example 70, 22-amino-3-(cyclopropylmethyl)-14,16-difluoro-10,19-dimethyl-20-oxa-3,4,10,11,23-pentaazapentacyclo[19.3.1.0^2,^6.0^8,^12.0^13,^18]pentacosa-1(24),2(6),4,8,11,13,15,17,21(25),22-decaene-5-carbonitrile], in assay [2], the IC50 is greater than 500 nM. In assay [3], the half-inhibitory concentration (IC50) was greater than 500 nM and the “ETV6-TRKB / EML4-ALK v1 I1171N/D1203N” value was “C (bin C for moderate selectivity, ratio≥1 but<10)”.
Turning to `Cc1nc2c(s1)C(=O)c1c(c(C#N)nn1C)-c1cnc(N)c(c1)O[C@H](C)c1cc(F)ccc1-2` [Example 74, (R)-22-amino-16-fluoro-5-methyl-10,19-dimethyl-7-oxo-20-oxa-9-thia-4,5,11,23-tetraazapentacyclo[19.3.1.0^2,^6.0^8,^12.0^13,^18]pentacosa-1(24),2(6),3,8(12),10,13,15,17,21(25),22-decaene-3-carbonitrile], the IC50 in assay [2] was greater than 500 nM. In addition, in assay [3], the concentration for half-maximal inhibition (IC50) lay within 50 to 500 nM; the “ETV6-TRKB / EML4-ALK v1 I1171N/D1203N” value is listed as “C (bin C for moderate selectivity, ratio≥1 but<10)”; the “Selectivity for Ba/F3 EML4-ALK v1 I1171N-D1203N IC50 over Ba/F3 ETV6-TRKB IC50” value is listed as “CC (bin CC for the selectivity with the ratio≥5 but<10)”.
As to `C[C@H]1Oc2nc(cnc2N)-c2c(nn(C)c2C#N)C(=O)c2cccnc2-c2ccc(F)cc21` [Example 75, (R)-23-amino-17-fluoro-4-methyl-20-methyl-7-oxo-21-oxa-4,5,12,24,26-pentaazapentacyclo[20.3.1.0^2,^6.0^8,^13.0^14,^19]hexacosa-1(25),2,5,8(13),9,11,14,16,18,22(26),23-undecaene-3-carbonitrile], the IC50 in assay [2] was in the range of 0.1 to 50 nM. For the same compound, in assay [3], the IC50 lay within 0.1 to 50 nM and the “ETV6-TRKB / EML4-ALK v1 I1171N/D1203N” value is “A (bin A for very high selectivity, ratio≥30-fold)”.
Regarding `C[C@H]1Oc2cc(cnc2N)-c2c(C#N)nn(C)c2C(O)c2cn(C)nc2-c2c(F)cc(F)cc21` (stereo partly drawn) [Example 79, (19R)-22-amino-14,16-difluoro-7-hydroxy-5,10-dimethyl-19-methyl-20-oxa-4,5,10,11,23-pentaazapentacyclo[19.3.1.0^2,^6.0^8,^12.0^13,^18]pentacosa-1(24),2(6),3,8,11,13,15,17,21(25),22-decaene-3-carbonitrile], the concentration for half-maximal inhibition (IC50) was greater than 500 nM in assay [2] and 50 to 500 nM in assay [3]. In assay [3], the “ETV6-TRKB / EML4-ALK v1 I1171N/D1203N” value is recorded as “C (bin C for moderate selectivity, ratio≥1 but<10)”.
Turning to “(7S,20R)-23-amino-17-fluoro-7-hydroxy-4-methyl-20-methyl-21-oxa-4,5,12,24-tetraazapentacyclo[20.3.1.0^2,6.0^8,13.0^14,19]hexacosa-1(25),2,5,8(13),9,11,14,16,18,22(26),23-undecaene-3-carbonitrile [Example 78]”, in assay [2], the IC50 is greater than 500 nM. For the same compound, in assay [3], the IC50 is 50 to 500 nM and the “ETV6-TRKB / EML4-ALK v1 I1171N/D1203N” value is “B (bin B for high selectivity, ratio≥10-fold but<30)”.
In the case of “(R)-22-amino-14,16-difluoro-4-methyl-10,19-dimethyl-7-oxo-20-oxa-9-thia-4,5,11,23-tetraazapentacyclo[19.3.1.0^2,6.0^8,12.0^13,18]pentacosa-1(24),2,5,8(12),10,13,15,17,21(25),22-decaene-3-carbonitrile [Example 80]”, the IC50 in assay [2] fell in the range of 50 to 500 nM. Further, in assay [3], the half-maximal inhibitory concentration (IC50) is 0.1 to 50 nM and the “ETV6-TRKB / EML4-ALK v1 I1171N/D1203N” value was “B (bin B for high selectivity, ratio≥10-fold but<30)”.
